According to patent US10034897B2, “Methods and compositions for muscular and neuromuscular diseases” (priority 2012, dated 2018):

Key:
[1] = Nitric oxide gas bubbled through carrier, change in weight; type: physicochemical; settings: NO gas bubbled 40 hr, 25 °C
Procedure: This example illustrates one technique for preparing a composition in accordance with one embodiment of the invention. An accurate amount of a carrier (HNC 167-62) (see below) was introduced into a system. The carrier weight used in these experiments was approximately 250 g and the vessel size was 500 ml. The vessel was equipped with a mechanical stirrer, gas inlet, and gas outlet and was previously purged with argon for about an hour. The temperature of the carrier was kept at about 25-30° C. NO gas regulated at 5 psi (1 psi is about 6,900 Pa) and was then introduced at a controlled rate of about 1 bubble/s with continuous stirring. […] After 6 hours, the weight of the carrier had increased by 0.15%, by 12 hours by 0.25%, and by 24 hours by 0.56%. These increases in weight were believed to be significant considering the relative small molecular weight of NO versus the carrier. […] The carrier also can solidify upon cooling if the carrier is initially a solid at lower temperature.
Each carrier was taken in a 500 mL three necked flask equipped with a mechanical stirrer, gas inlet and a gas outlet. The system was purged with argon for one hour at room temperature (25° C.). Then nitric oxide gas was bubbled into the system. Then, nitric oxide gas was bubbled through carrier for stipulated amount of time. The changes in weight and color were noted. […]

humans [2] = assay: Laser Doppler capillary blood flow, closed Hilltop chamber on forearm, Example 5; type: in vivo, human; settings: applied to the skin at 1/10% in alcohol
Source text: The formulation used in these studies contained nitric oxide dispersed in a lipid matrix. […] Nitric oxide is a very rapid acting molecule, and these studies used a system that employed laser Doppler with a covered chamber. The formulation was placed into the chamber and then attached to the skin by an adhesive layer on the covering. This provided a stable measuring device as determined by multiple normal evaluations of the capillary blood flow without treatment of nitric oxide.
A known positive control, methyl nicotinate, was applied to the skin at a concentration of 1/10% in alcohol. […] The vascular dynamics are such that when the blood vessels dilate physical parameters follow Bernoulli's law. This states that as one increases the diameter of a tube containing a liquid to flow will increase but the pressure and the speed of the liquid will decrease. The laser Doppler device accurately measured these parameters.
The test product was labeled as 10,000 ppm NO (nitric oxide). The study participants had 100 mg of the test product applied in a closed Hilltop chamber on the forearm. […]
A Moor Instruments DRT4 Laser Doppler Blood Flow Monitor (Devon, England) was used in these studies. The laser Doppler technique measured blood flow in the microcapillaries of the skin that are close to the skin surface and the blood flow in underlying arterioles and venules that help to regulate skin temperature. […]

humans [3] = assay: Laser Doppler capillary circulation in five human subjects, Example 7; type: in vivo; settings: positive control formulation containing 0.1% methyl nicotinate
Source text: This example illustrates delivery of nitric oxide formulations to five human subjects, using procedures and formulations similar to those discussed in Example 5. Each person served as their own control for the testing. A Moor Instruments Laser Doppler was used to determine circulation. […] The formulations used produce positive, almost immediate results when applied to the skin which, in these studies, was manifested by vasodilatation of the cutaneous vascular system.
For each subject, the following creams were applied: a negative control formulation (containing no NO), 0.010 gram of a 10,000 ppm NO formulation, 0.020 gram of a 10,000 ppm NO formulation, and a positive control formulation containing 0.1% methyl nicotinate. The formulations were prepared using procedures similar to those discussed in Example 1.

Structure (SMILES): OCCCO [1,3-Propanediol, 1,3-propanediol]
- % Wt. gain [1]: 0.09%
- Wt Gain [1]: 0.16 g

Structure (SMILES): COC(=O)c1cccnc1 [methyl nicotinate]
- laser Doppler response of positive control (humans [2]): rapid response typical of the vasodilator
- vasodilatation (humans [3]): vasodilatation was observed
